Measured values as given in patent US10184933B2, “Compositions, systems and methods for gene expression noise drug screening and uses thereof” (priority 2013, dated 2019).
“Also recorded” adds a separate entry of the source. Structures can show the parent of a compound that is named as a salt. Where two headings read alike, the source gives them in different places.

Tests used:
Type in all cases: cell-based
HIV-1 LTR promoter [1] = settings: for variability in gene expression (noise magnitude) / mean expression level: known transcriptional modulators applied to the isoclone target; for variability in gene expression (noise magnitude) / mean expression level / burst frequency: FIG. 6D; for burst frequency: activator drugs
HIV-1 LTR promoter [2] = experiment: Two-reporter system (LTR-d2GFP and LTR-mCherry) noise measurement; settings: FIG. 6E; for transcriptional burst frequency (decreasing noise in mCherry): transcriptional modifiers; for d2GFP noise / mCherry noise: known transcriptional activators
Method: Without being bound by theory, a destabilized reporter is required to observe transcriptional noise with shorter time scales. GFP noise magnitude (quantified by the variance over the mean fluorescence squared, CV^2) and mean fluorescence were measured by high-throughput flow cytometry 24 hours post 10 uM drug exposure. To control for extrinsic variability in gene expression due to cell volume and state a conservative gating on the population forward versus side scatter was applied (See General Methods). A second LTR driving a long-lived mCherry reporter was integrated and screened alongside the destabilized reporter drug target to control for fluctuations in global resources and post-transcriptional noise sources (FIG. 6E).
To distinguish between compounds that primarily target transcription versus post-transcriptional processes and global resources (extrinsic noise) a second reporter of the LTR promoter driving a stable mCherry gene was included in the same targeted cell population used in the drug noise screen (FIG. 6E). The stable reporter averages out and is unaffected by fluctuations due to episodic transcription. Theory predicts that the destabilized d2GFP reporter can detect transcriptional bursting noise contributions (γp>>kon,koff, where γp is the fluorescent reporter degradation rate) while the two reporters together will move their noise magnitudes to changes in non-transcriptional noise sources. Filtering out non-transcriptional noise signatures of VM hits increases the probability for synergistic reactivation of latency. Noise from the two reporters was compared using the same processing as the LTR-d2GFP. The LTR-mCherry ΔCV^2 of the 85 selected VMs primarily land along the ΔCV^2 d2GFP axis. […]. Of these 25 compounds 15 were identified as modifiers of cell cycle, ATP, inflammation, post-translational modifications, and translation.
In addition to the GFP reporter in the LTR-d2GFP cell line, an LTR driving a long half-life mCherry reporter was present in the cell line. […] To remove compounds that altered CV^2 post transcriptionally, compounds that affected the CV^2 long-lived red reporter while conserving its mean mCherry level were removed. This method continues development of the original and decade-old 2-reporter system for intrinsic versus extrinsic noise measurements in bacteria (Elowitz et al., (2002) Science 297:1183-1186).

[3] = system: latent HIV-1 in JLat 8.6 cells
[4] = Pharmakon 1600 library, 10 uM, 24 hours, FIG. 10
[5] = with one or more of PMA, prostratin, TNFα, and bryostatin, FIG. 11

Compound | identified as variability enhancer (VE) in noise screen (HIV-1 LTR promoter [1]; [4]) | synergy in reactivation of HIV-1 latency [3] | other results
Nc1ncn([C@@H]2O[C@H](CO)[C@@H](O)[C@H]2O)c(=O)n1 [AZA, 4-Amino-1-(β-D-ribofuranosyl)1,3,5-triazin-2(1H)-one] | variability enhancers | – | variability in gene expression (noise magnitude) (HIV-1 LTR promoter [1]): increase variability in gene expression; also recorded: variability enhancers; transcriptional burst frequency (decreasing noise in mCherry) (HIV-1 LTR promoter [2]): increase transcriptional burst frequency
CCC/C=C/C=C/C(=O)O[C@H]1/C(=C/C(=O)OC)C[C@H]2C[C@H]([C@@H](C)O)OC(=O)C[C@H](O)C[C@@H]3C[C@H](OC(C)=O)C(C)(C)[C@](O)(C[C@@H]4C/C(=C/C(=O)OC)C[C@H](/C=C/C(C)(C)[C@]1(O)O2)O4)O3 [Bryostatin, bryostatin] | – | – | mean expression level (HIV-1 LTR promoter [1]): scored lower; d2GFP noise (HIV-1 LTR promoter [2]): decrease both mCherry and d2GFP noise; mCherry noise (HIV-1 LTR promoter [2]): decrease both mCherry and d2GFP noise; transcriptional burst frequency (decreasing noise in mCherry) (HIV-1 LTR promoter [2]): increase transcriptional burst frequency
Nc1ccccc1NC(=O)c1ccc(CNC(=O)OCc2cccnc2)cc1 [MS-275, 3-pyridinylmethyl [[4-[[(2-aminophenyl)amino]carbonyl]phenyl]methyl]carbamate] | – | – | variability in gene expression (noise magnitude) (HIV-1 LTR promoter [1]): increase variability in gene expression; also recorded: variability enhancers; d2GFP noise (HIV-1 LTR promoter [2]): increase d2GFP noise; mCherry noise (HIV-1 LTR promoter [2]): decrease mCherry noise; transcriptional burst frequency (decreasing noise in mCherry) (HIV-1 LTR promoter [2]): increase transcriptional burst frequency
CCCCCCCCCCCCCC(=O)O[C@@H]1[C@@H](C)[C@@]2(O)[C@@H](C=C(CO)C[C@]3(O)C(=O)C(C)=C[C@@H]23)[C@@H]2C(C)(C)[C@]12OC(C)=O [PMA, phorbol 12-myristate 13-acetate] | – | – | burst frequency (HIV-1 LTR promoter [1]): increase burst frequency; mean expression level (HIV-1 LTR promoter [1]): increase mean expression level; variability in gene expression (noise magnitude) (HIV-1 LTR promoter [1]): decrease variability in gene expression; also recorded: decrease noise magnitude; d2GFP noise (HIV-1 LTR promoter [2]): decrease both mCherry and d2GFP noise; mCherry noise (HIV-1 LTR promoter [2]): decrease both mCherry and d2GFP noise; transcriptional burst frequency (decreasing noise in mCherry) (HIV-1 LTR promoter [2]): increase transcriptional burst frequency
CN(C)CCC(c1ccc(Cl)cc1)c1ccccn1 (centres unmarked) [V58, chlorpheniramine maleate] | – | synergized | identified as variability enhancer (VE) in noise screen (HIV-1 LTR promoter [1]): variability enhancers
O=C(O)CCCc1ccccc1 [V59, phenylbutyric acid] | – | synergized | identified as variability enhancer (VE) in noise screen (HIV-1 LTR promoter [1]): variability enhancers
C#CCN(C)Cc1ccccc1 [V61, Pargyline hydrochloride] | variability enhancers | synergized | –
CCCc1nc2c(C)cc(-c3nc4ccccc4n3C)cc2n1Cc1ccc(-c2ccccc2C(=O)O)cc1 [V62, telmisartan] | variability enhancers | synergized | –
O=c1[nH]c(=O)n(Cl)c(=O)n1Cl [V63, troclosene potassium] | – | synergized | identified as variability enhancer (VE) in noise screen (HIV-1 LTR promoter [1]): variability enhancers
Oc1ccc(O)cc1 [V76, hydroquinone] | – | synergized | identified as variability enhancer (VE) in noise screen (HIV-1 LTR promoter [1]): variability enhancers
CO[C@H]1C[C@H](O[C@@H]2/C(C)=C/C[C@@H]3C[C@@H](C[C@]4(CC[C@H](C)[C@@H](C5CCCCC5)O4)O3)OC(=O)[C@@H]3C=C(C)/C(=N/O)[C@H]4OC/C(=C\C=C\[C@@H]2C)[C@]43O)O[C@@H](C)[C@@H]1O [V77, selamectin] | – | synergized | identified as variability enhancer (VE) in noise screen (HIV-1 LTR promoter [1]): variability enhancers
N[C@@H](Cc1ccc(O)c(O)c1)C(=O)O [V78, levodopa] | variability enhancers | synergized | –
CC(C)[C@H](N)C(=O)OCC(CO)OCn1cnc2c(=O)nc(N)[nH]c21 (some centres unmarked) [V80, valganciclovir hydrochloride] | variability enhancers | synergized | –
CC(C)NCC(O)c1ccc(NS(C)(=O)=O)cc1 (centres unmarked) [V83, sotalol hydrochloride] | variability enhancers | synergized | –
COc1ccccc1OCCNCC(O)COc1cccc2[nH]c3ccccc3c12 (centres unmarked) [V84, carvedilol] | variability enhancers | synergized | –
O=C(O)[C@H]1/C(=C/CO)O[C@@H]2CC(=O)N21 [V85, clavulanate lithium] | variability enhancers | synergized | –
CNC(C)C(O)c1ccccc1 (centres unmarked) [V87, racephedrine hydrochloride] | variability enhancers | synergized | –
CC(C)(CO)[C@@H](O)C(=O)NCCCO [V90, dexpanthenol] | variability enhancers | synergized | –

Compound | identified as variability enhancer (VE) in noise screen (HIV-1 LTR promoter [1]; [4]) | synergy in reactivation of HIV-1 latency [3] | other results
CCCc1nc(C)c2c(=O)[nH]c(-c3cc(S(=O)(=O)N4CCN(CC)CC4)ccc3OCC)nn12 [V91, vardenafil hydrochloride] | variability enhancers | synergized | –
COc1ccccc1O [V92, guaiacol] | variability enhancers | synergized | –
COCCCOc1ccnc(C[S+]([O-])c2nc3ccccc3[nH]2)c1C (centres unmarked) [V93, rabeprazole sodium] | variability enhancers | synergized | –
CCC(=O)O[C@]1(C(=O)CCl)[C@@H](C)C[C@H]2[C@@H]3CCC4=CC(=O)C=C[C@]4(C)[C@@]3(F)[C@@H](O)C[C@@]21C [V94, clobetasol propionate] | variability enhancers | synergized | –
COc1c(C)c2c(c(O)c1C/C=C(\C)CCC(=O)O)C(=O)OC2 [V95, mycophenolic acid] | variability enhancers | synergized | –
CC(=O)OCC(=O)[C@@]1(O)CC[C@H]2[C@@H]3CCC4=CC(=O)CC[C@]4(C)[C@@]3(F)[C@@H](O)C[C@@]21C [V96, fludrocortisone acetate] | – | synergized | identified as variability enhancer (VE) in noise screen (HIV-1 LTR promoter [1]): variability enhancers
CCN(C(C)=O)c1cccc(-c2ccnc3c(C#N)cnn23)c1 [V97, zaleplon] | variability enhancers | synergized | –
CCCCC(CC)COc1ccc(-c2nc(-c3ccc(OC)cc3)nc(-c3ccc(OCC(CC)CCCC)cc3O)n2)c(O)c1 (centres unmarked) [V98, bemotrizinol] | variability enhancers | synergized | –
Oc1ccc(Cl)cc1 [V99, parachlorophenol] | – | synergized | identified as variability enhancer (VE) in noise screen (HIV-1 LTR promoter [1]): variability enhancers
O=[N+]([O-])OCC(CO[N+](=O)[O-])O[N+](=O)[O-] [V100, nitroglycerin] | variability enhancers | synergized | –
CC(=O)Nc1c(I)cc(I)c(C(=O)O)c1I [V102, acetriazoic acid] | – | synergized | identified as variability enhancer (VE) in noise screen (HIV-1 LTR promoter [1]): variability enhancers
TNFα | – | – | burst frequency (HIV-1 LTR promoter [1]): increase burst frequency; mean expression level (HIV-1 LTR promoter [1]): increase mean expression level; variability in gene expression (noise magnitude) (HIV-1 LTR promoter [1]): decrease variability in gene expression; also recorded: decrease noise magnitude; d2GFP noise (HIV-1 LTR promoter [2]): decrease both mCherry and d2GFP noise; mCherry noise (HIV-1 LTR promoter [2]): decrease both mCherry and d2GFP noise; transcriptional burst frequency (decreasing noise in mCherry) (HIV-1 LTR promoter [2]): increase transcriptional burst frequency
acetophenazine maleate [V12] | – | synergized | identified as variability enhancer (VE) in noise screen (HIV-1 LTR promoter [1]): variability enhancers
carboplatin [V71] | variability enhancers | – | synergy in reactivation of HIV-1 latency [3, 5]: synergized
colesevalam hydrochloride [V60] | variability enhancers | synergized | –
colistin sulfate [V45] | variability enhancers | – | synergy in reactivation of HIV-1 latency [3, 5]: synergized
sucralfate [V79] | variability enhancers | synergized | –
